Experimental data: US9855268B2, “Triazolo[4,5-d]pyrimidine derivatives” (Merck Patent GmbH, priority 2013, dated 2018)

Legend:
GSK3β(h) = GSK3β(h) (Homo sapiens, UniProt P49841); assay: GSK3β radiometric kinase assay (33P-ATP, phospho GS2 peptide); format: biochemical; conditions: read-out: IC50 GSK3β (enzyme assay)
Summary of the method: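 Human GSK3β in 8 mM MOPS pH 7,0, 0,2 mM EDTA, 10 mM Mg-acetate with 20 μM phospho-GS2 peptide; the reaction was started with [γ-33P]MgATP at an unstated level. After 40 min at room temperature it was stopped with phosphoric acid, and the peptide was captured on P30 filtermat for scintillation counting.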

GSK3α(h) = GSK3α(h) (Homo sapiens, UniProt P49840); assay: GSK3α radiometric kinase assay (33P-ATP, phospho GS2 peptide); format: biochemical; conditions: read-out: IC50 GSK3α (enzyme assay)
Summary of the method: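 Human GSK3α incubated with 20 μM phospho-GS2 peptide in 8 mM MOPS pH 7,0, 10 mM Mg-acetate and [γ-33P]ATP (concentration as required), started with MgATP. After 40 minutes at room temperature, stopped with phosphoric acid; 33P incorporation measured by filtermat spotting and scintillation counting.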

GCN2 [1] = target: T1, GCN2 (Homo sapiens, UniProt Q9P2K8); assay: GCN2 enzyme assay (TR-FRET Lanthascreen, GFP-eIF2alpha phosphorylation); format: biochemical; conditions: 10 μM ATP, 80 nM GFP-eIF2a, 30 nM GCN2
Summary of the method: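 Phosphorylation of GFP-eIF2alpha (80 nM) by GCN2 run at room temperature with 10 μM ATP. After EDTA quench, product quantified by Lanthascreen TR-FRET (antibody–GFP complex, 340 nm excitation).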
Target sequence in this assay (Q9P2K8 whole entry, species assumed): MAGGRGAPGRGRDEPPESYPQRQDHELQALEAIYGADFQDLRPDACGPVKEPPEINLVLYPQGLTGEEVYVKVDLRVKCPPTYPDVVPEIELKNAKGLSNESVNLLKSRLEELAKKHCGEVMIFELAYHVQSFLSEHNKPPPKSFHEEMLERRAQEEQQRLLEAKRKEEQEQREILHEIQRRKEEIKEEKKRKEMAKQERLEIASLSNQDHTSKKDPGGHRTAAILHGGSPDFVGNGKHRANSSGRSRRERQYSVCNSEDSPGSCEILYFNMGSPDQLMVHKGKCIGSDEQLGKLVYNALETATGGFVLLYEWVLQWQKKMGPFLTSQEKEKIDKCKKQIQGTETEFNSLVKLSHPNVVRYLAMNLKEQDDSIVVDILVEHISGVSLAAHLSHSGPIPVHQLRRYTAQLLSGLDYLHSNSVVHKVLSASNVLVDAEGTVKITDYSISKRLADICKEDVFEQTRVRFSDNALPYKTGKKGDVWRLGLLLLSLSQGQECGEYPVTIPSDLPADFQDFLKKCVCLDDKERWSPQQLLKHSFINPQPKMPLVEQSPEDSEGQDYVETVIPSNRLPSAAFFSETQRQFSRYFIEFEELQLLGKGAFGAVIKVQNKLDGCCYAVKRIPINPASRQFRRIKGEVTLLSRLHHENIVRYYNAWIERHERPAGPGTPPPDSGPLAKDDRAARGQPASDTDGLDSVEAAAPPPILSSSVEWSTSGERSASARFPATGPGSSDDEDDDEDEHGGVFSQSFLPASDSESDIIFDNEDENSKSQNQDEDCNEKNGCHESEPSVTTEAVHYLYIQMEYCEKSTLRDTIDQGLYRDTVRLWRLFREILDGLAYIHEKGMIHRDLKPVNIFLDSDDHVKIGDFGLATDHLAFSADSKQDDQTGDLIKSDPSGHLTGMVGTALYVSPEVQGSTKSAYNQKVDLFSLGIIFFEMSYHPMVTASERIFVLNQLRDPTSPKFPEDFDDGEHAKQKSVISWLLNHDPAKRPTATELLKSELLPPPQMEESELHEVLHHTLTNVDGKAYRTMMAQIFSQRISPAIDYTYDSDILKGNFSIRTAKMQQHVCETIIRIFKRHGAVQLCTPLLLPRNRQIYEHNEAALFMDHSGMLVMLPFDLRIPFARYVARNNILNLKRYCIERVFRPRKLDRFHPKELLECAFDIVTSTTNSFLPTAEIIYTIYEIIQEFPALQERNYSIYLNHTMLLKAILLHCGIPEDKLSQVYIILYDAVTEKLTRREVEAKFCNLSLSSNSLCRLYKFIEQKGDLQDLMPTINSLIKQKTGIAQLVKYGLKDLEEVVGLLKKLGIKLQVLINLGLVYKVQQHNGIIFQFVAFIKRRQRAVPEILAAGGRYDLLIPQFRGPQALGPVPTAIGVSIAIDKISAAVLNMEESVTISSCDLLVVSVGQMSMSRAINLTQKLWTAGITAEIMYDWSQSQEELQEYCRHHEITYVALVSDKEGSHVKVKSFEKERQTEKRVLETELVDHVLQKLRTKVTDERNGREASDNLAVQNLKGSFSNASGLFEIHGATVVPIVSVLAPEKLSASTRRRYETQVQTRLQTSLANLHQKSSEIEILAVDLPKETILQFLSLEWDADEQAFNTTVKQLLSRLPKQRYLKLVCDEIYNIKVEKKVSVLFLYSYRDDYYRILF

GCN2 [2] = target: T1, GCN2; assay: Cellular assay of GCN2 activity (phospho-eIF2alpha immunocytochemistry after tryptophanol); format: cell-based; parameters: endogenous in cells; host or cells: U2OS; conditions: Human U2OS cells, 2 h compound, 600 μM tryptophanol 30 min
Summary of the method: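 Readout in human U2OS cells: compound pretreatment 2 h, then tryptophanol (600 μM final) for 30 min to trigger GCN2 signalling. Fixed, permeabilised cells quantified by immunocytochemistry for phosphorylation, normalised to DMSO controls as % effect; IC50 from concentration-response.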
Target sequence in this assay (Q9P2K8 whole entry): as the sequence (Q9P2K8 whole entry, species assumed) above

Chain of GSK3β(h) (P49841 whole entry): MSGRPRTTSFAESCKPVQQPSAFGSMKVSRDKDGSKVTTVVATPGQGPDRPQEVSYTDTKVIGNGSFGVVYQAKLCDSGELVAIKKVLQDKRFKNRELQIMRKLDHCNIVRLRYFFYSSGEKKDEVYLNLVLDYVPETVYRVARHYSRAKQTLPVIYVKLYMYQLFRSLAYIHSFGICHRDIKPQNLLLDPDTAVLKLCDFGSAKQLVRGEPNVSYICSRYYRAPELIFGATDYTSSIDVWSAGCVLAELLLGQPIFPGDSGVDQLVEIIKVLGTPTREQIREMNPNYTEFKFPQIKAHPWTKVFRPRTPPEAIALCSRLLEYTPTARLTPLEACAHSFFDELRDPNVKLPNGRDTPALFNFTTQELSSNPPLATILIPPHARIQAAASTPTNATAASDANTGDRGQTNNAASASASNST
Chain of GSK3α(h) (P49840 whole entry): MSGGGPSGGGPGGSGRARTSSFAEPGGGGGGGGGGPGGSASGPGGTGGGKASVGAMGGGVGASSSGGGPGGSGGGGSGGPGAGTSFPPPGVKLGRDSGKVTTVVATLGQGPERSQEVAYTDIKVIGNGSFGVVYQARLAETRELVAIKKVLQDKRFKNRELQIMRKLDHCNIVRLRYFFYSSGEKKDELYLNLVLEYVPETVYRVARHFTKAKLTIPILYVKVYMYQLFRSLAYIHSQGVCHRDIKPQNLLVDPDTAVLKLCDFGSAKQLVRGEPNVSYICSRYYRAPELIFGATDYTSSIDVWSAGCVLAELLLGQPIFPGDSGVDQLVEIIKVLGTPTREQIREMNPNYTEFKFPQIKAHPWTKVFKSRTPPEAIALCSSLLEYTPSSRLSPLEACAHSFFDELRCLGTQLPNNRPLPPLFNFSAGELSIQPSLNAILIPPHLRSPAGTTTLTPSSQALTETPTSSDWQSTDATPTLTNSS

SMILES	IC50 (GSK3β(h)) [µM]	IC50 (GSK3α(h)) [µM]	IC50 (GCN2 [1]) [µM]	IC50 (GCN2 [2]) [µM]
COCCn1cc(-c2ccc(-n3nnc4cnc(N[C@@H]5CC[C@@H](C(N)=O)C5)nc43)cn2)cn1 [A224, (1R,3R)-3-(3-{6-[1-(2-methoxy-ethyl)-1H-pyrazol-4-yl]-pyridin-3-yl}-3H-[1,2,3]triazolo[4,5-d]pyrimidin-5-ylamino)-cyclopentanecarboxylic acid amide]	< 1	< 1	< 1	5 to 10
CCOCCn1cc(-c2ccc(-n3nnc4cnc(N[C@@H]5CC[C@@H](C(=O)NCCOC)C5)nc43)cc2)cn1 [A225, (1R,3R)-3-(3-{4-[1-(2-ethoxy-ethyl)-1H-pyrazol-4-yl]-phenyl}-3H-[1,2,3]triazolo[4,5-d]pyrimidin-5-ylamino)-cyclopentanecarboxylic acid (2-methoxy-ethyl)-amide]	< 1	< 1	< 1	1 to 5
CCOCCn1cc(-c2ccc(-n3nnc4cnc(N[C@@H]5CC[C@@H](C(=O)NCCO)C5)nc43)cc2)cn1 [A226, (1R,3R)-3-(3-{4-[1-(2-ethoxy-ethyl)-1H-pyrazol-4-yl]-phenyl}-3H-[1,2,3]triazolo[4,5-d]pyrimidin-5-ylamino)-cyclopentanecarboxylic acid (2-hydroxy-ethyl)-amide]	< 1	< 1	< 1	1 to 5
CCOCCn1cc(-c2ccc(-n3nnc4cnc(N[C@@H]5CC[C@@H](O)C5)nc43)cc2)cn1 [A227, (1R,3R)-3-(3-{4-[1-(2-ethoxy-ethyl)-1H-pyrazol-4-yl]-phenyl}-3H-[1,2,3]triazolo[4,5-d]pyrimidin-5-ylamino)-cyclopentanol]	< 1	< 1	< 1	1 to 5
COCCn1cc(-c2ccc(-n3nnc4cnc(N[C@@H]5CC[C@@H](O)C5)nc43)cc2F)cn1 [A228, (1R,3R)-3-(3-{3-fluoro-4-[1-(2-methoxy-ethyl)-1H-pyrazol-4-yl]-phenyl}-3H-[1,2,3]triazolo[4,5-d]pyrimidin-5-ylamino)-cyclopentanol]	< 1	< 1	< 1	5 to 10
COCCn1cc(-c2ccc(-n3nnc4cnc(N[C@@H]5CC[C@@H](C(N)=O)C5)nc43)cc2C)cn1 [A230, (1R,3R)-3-(3-{4-[1-(2-methoxy-ethyl)-1H-pyrazol-4-yl]-3-methyl-phenyl}-3H-[1,2,3]triazolo[4,5-d]pyrimidin-5-ylamino)-cyclopentanecarboxylic acid amide]	< 1	< 1	< 1	1 to 5
CC(C)(O)Cn1cc(-c2ccc(-n3nnc4cnc(N[C@@H]5CC[C@@H](O)C5)nc43)cc2)cn1 [A232, (1R,3R)-3-(3-{4-[1-(2-hydroxy-2-methyl-propyl)-1H-pyrazol-4-yl]-phenyl}-3H-[1,2,3]triazolo[4,5-d]pyrimidin-5-ylamino)-cyclopentanol]	< 1	< 1	< 1	5 to 10
COCCn1cc(-c2ccc(-n3nnc4cnc(N[C@@H]5CC[C@@H](C(=O)NCC6CCN(C)CC6)C5)nc43)cc2)cn1 [A235, (1R,3R)-3-(3-{4-[1-(2-methoxy-ethyl)-1H-pyrazol-4-yl]-phenyl}-3H-[1,2,3]triazolo[4,5-d]pyrimidin-5-ylamino)-cyclopentanecarboxylic acid (1-methyl-piperidin-4-ylmethyl)-amide]	< 1	< 1	< 1	1 to 5
CCOc1ccc(-n2nnc3cnc(N[C@@H]4CC[C@@H](C(=O)NCCC(C)(C)O)C4)nc32)cc1 [A240, (1R,3R)-3-[3-(4-ethoxy-phenyl)-3H-[1,2,3]triazolo[4,5-d]pyrimidin-5-ylamino]-cyclopentanecarboxylic acid (3-hydroxy-3-methyl-butyl)-amide]	< 1	< 1	< 1	5 to 10
COc1ccc(-n2nnc3cnc(N[C@@H]4CC[C@@H](C(=O)NCCN5CCN(C)CC5)C4)nc32)cc1 [A244, (1R,3R)-3-[3-(4-methoxy-phenyl)-3H-[1,2,3]triazolo[4,5-d]pyrimidin-5-ylamino]-cyclopentanecarboxylic acid [2-(4-methyl-piperazin-1-yl)-ethyl]-amide]	< 1	< 1	< 1	< 1
Cc1ccc2cc(-n3nnc4cnc(N[C@@H]5CC[C@@H](C(=O)NCCO)C5)nc43)ccc2n1 [A245, (1R,3R)-3-[3-(2-methyl-quinolin-6-yl)-3H-[1,2,3]triazolo[4,5-d]pyrimidin-5-ylamino]-cyclopentanecarboxylic acid (2-hydroxy-ethyl)-amide]	< 1	< 1	< 1	< 1
COCCNC(=O)[C@@H]1CC[C@@H](Nc2ncc3nnn(-c4ccc5nc(C)ccc5c4)c3n2)C1 [A246, (1R,3R)-3-[3-(2-methyl-quinolin-6-yl)-3H-[1,2,3]triazolo[4,5-d]pyrimidin-5-ylamino]-cyclopentanecarboxylic acid (2-methoxy-ethyl)-amide]	< 1	< 1	< 1	1 to 5
CCOc1ccc(-n2nnc3cnc(N[C@@H]4CC[C@@H](C(=O)NCCO)C4)nc32)cc1 [A247, (1R,3R)-3-[3-(4-ethoxy-phenyl)-3H-[1,2,3]triazolo[4,5-d]pyrimidin-5-ylamino]-cyclopentanecarboxylic acid (2-hydroxy-ethyl)-amide]	< 1	< 1	< 1	< 1
CCOc1ccc(-n2nnc3cnc(N[C@@H]4CC[C@@H](C(=O)NCCOC)C4)nc32)cc1 [A248, (1R,3R)-3-[3-(4-ethoxy-phenyl)-3H-[1,2,3]triazolo[4,5-d]pyrimidin-5-ylamino]-cyclopentanecarboxylic acid (2-methoxy-ethyl)-amide]	< 1	< 1	< 1	1 to 5
CCOc1ccc(-n2nnc3cnc(N[C@@H]4CC[C@@H](C(=O)NCC5CCN(C)CC5)C4)nc32)cc1 [A249, (1R,3R)-3-[3-(4-ethoxy-phenyl)-3H-[1,2,3]triazolo[4,5-d]pyrimidin-5-ylamino]-cycloentanecarboxyic acid (1-methyl-piperidin-4-ylmethyl)-amide]	< 1	< 1	< 1	1 to 5
Cc1ccc2cc(-n3nnc4cnc(N[C@@H]5CC[C@@H](C(=O)NCCN6CCN(C)CC6)C5)nc43)ccc2n1 [A250, (1R,3R)-3-[3-(2-methyl-quinolin-6-yl)-3H-[1,2,3]triazolo[4,5-d]pyrimidin-5-ylamino]-cyclopentanecarboxylic acid [2-(4-methyl-piperazin-1-yl)-ethyl]-amide]	< 1	< 1	< 1	1 to 5
Cc1ccc2cc(-n3nnc4cnc(N[C@@H]5CC[C@@H](C(=O)NCC6CCN(C)CC6)C5)nc43)ccc2n1 [A252, (1R,3R)-3-[3-(2-methyl-quinolin-6-yl)-3H-[1,2,3]triazolo[4,5-d]pyrimidin-5-ylamino]-cyclopentanecarboxylic acid (1-methyl-piperidin-4-ylmethyl)-amide]	< 1	< 1	< 1	1 to 5
OCCn1cc(-c2ccc(-n3nnc4cnc(N[C@@H]5CC[C@@H](O)C5)nc43)cc2)cn1 [A259, (1R,3R)-3-(3-{4-[1-(2-hydroxy-ethyl)-1H-pyrazol-4-yl]-phenyl}-3H-[1,2,3]triazolo[4,5-d]pyrimidin-5-ylamino)-cyclopentanol]	< 1	< 1	< 1	1 to 5
NC(=O)[C@@H]1CC[C@@H](Nc2ncc3nnn(-c4ccc(-c5cnn(CCO)c5)c(F)c4)c3n2)C1 [A260, (1R,3R)-3-(3-{3-fluoro-4-[1-(2-hydroxy-ethyl)-1H-pyrazol-4-yl]-phenyl}-3H-[1,2,3]triazolo[4,5-d]pyrimidin-5-ylamino)-cyclopentanecarboxylic acid amide]	< 1	< 1	< 1	5 to 10
COc1ccc(-n2nnc3cnc(N[C@@H]4C=C[C@@H](C(N)=O)C4)nc32)cc1 [A273, (1S,4S)-4-[3-(4-Methoxy-phenyl)-3H-[1,2,3]triazolo[4,5-d]pyrimidin-5-ylamino]-cyclopent-2-enecarboxylic acid amide]	< 1	< 1	< 1	5 to 10
COCCOc1ccc(-n2nnc3cnc(N[C@@H]4CC[C@@H](C#N)C4)nc32)cc1 [A274, (1R,3R)-3-{3-[4-(2-methoxy-ethoxy)-phenyl]-3H-[1,2,3]triazolo[4,5-d]pyrimidin-5-ylamino}-cyclopentanecarbonitrile]	< 1	< 1	< 1	1 to 5
